Data set [1] has as its system Klebsiella pneumoniae. Put plainly: Antibacterial activity against Klebsiella pneumoniae isolate SI-081 after 18 hrs by microdilution broth method. The conditions noted are these: isolate SI-081, 18 h. The format is functional. For orientation: Dilution methods test growth across graded concentrations, often in twofold steps.
For the next data set, the system named is Enterococcus faecalis. As to the kind of experiment: Antibacterial activity against Enterococcus faecalis ATCC 19433 after 18 hrs by microdilution broth method. The data set is classed as functional. The following applies: ATCC 19433, 18 h.
Data set [2] deals with Escherichia coli. Put plainly: Antibacterial activity against Escherichia coli CCUG after 18 hrs by microdilution broth method.
Data set [3] has as its system Stenotrophomonas maltophilia. Put plainly: Antibacterial activity against Stenotrophomonas maltophilia isolate 634/08 after 18 hrs by microdilution broth method. The following applies: isolate 634/08, 18 h. The data set is classed as functional.
Data set [4] has as its system Pseudomonas aeruginosa. Put plainly: Antibacterial activity against Pseudomonas aeruginosa ATCC 27853 after 18 hrs by microdilution broth method. The data set is classed as functional. The following applies: ATCC 27853, 18 h.
In data set [5] the test system is Klebsiella pneumoniae. Put plainly: Antibacterial activity against Klebsiella pneumoniae ATCC […] after 18 hrs by microdilution broth method. The format is functional.
The subject of a further data set is Staphylococcus aureus. As to the kind of experiment: Antibacterial activity against Staphylococcus aureus ATCC 25923 after 18 hrs by microdilution broth method. The conditions noted are these: ATCC 25923, 18 h. The format is functional.
The next data set relates to Bacillus spizizenii. As to the kind of experiment: Antibacterial activity against Bacillus subtilis ATCC 6633 after 18 hrs by microdilution broth method. The format is functional. The conditions noted are these: ATCC 6633, 18 h.
In another data set the test system is Burkholderia cepacia. Put plainly: Antibacterial activity against Burkholderia cepacia isolate SI-R2 after 18 hrs by microdilution broth method. The data set is classed as functional. The following applies: isolate SI-R2, 18 h.
The next data set has as its system Enterobacter cloacae. As to the kind of experiment: Antibacterial activity against Enterobacter cloacae isolate VA-417/02 after 18 hrs by microdilution broth method. The data set is classed as functional. The conditions noted are these: isolate VA-417/02, 18 h.
Data set [6] concerns Acinetobacter baumannii. As to the kind of experiment: Antibacterial activity against Acinetobacter baumannii ATCC 17978 after 18 hrs by microdilution broth method. The data set is classed as functional. The conditions noted are these: ATCC 17978, 18 h.
The next data set relates to Streptococcus pyogenes. As to the kind of experiment: Antibacterial activity against Streptococcus pyogenes ATCC 12344 after 18 hrs by microdilution broth method. The data set is classed as functional. The conditions noted are these: ATCC 12344, 18 h.
The test system of data set [7] is Acinetobacter baumannii. As to the kind of experiment: Disruption of Acinetobacter baumannii ATCC 19606 outer membrane integrity assessed as induction of NPN uptake after 30 mins by NPN fluorescence-based assay. The format is functional, organism-based. The following applies: ATCC 19606 = CIP 70.34 = JCM 6841.
Data set [8] deals with Escherichia coli. Put plainly: Antibiofilm activity against Escherichia coli MG1655 ATCC 47076 at half MIC concentration after 24 hrs by crystal violet-based assay. The data set is classed as functional, organism-based. The conditions noted are these: K-12 substr. MG1655 ATCC 47076.
Data set [9] concerns Escherichia coli. Put plainly: Disruption of inner membrane integrity in Escherichia coli MG1655 assessed as induction of […] conversion at 256 ug/ml measured at 10 mins intervals for 1 hr. The format is functional, organism-based. The conditions noted are these: K-12 substr. MG1655.
Data set [10] relates to Pseudomonas aeruginosa. As to the kind of experiment: Antibiofilm activity against Pseudomonas aeruginosa PAO1 ATCC 15692 assessed as effect on biofilm 3D structures at half MIC concentration after 24 hrs by AO-staining based confocal microscopy. The format is functional, organism-based.
For data set [11], the system named is Acinetobacter baumannii. Put plainly: Antibiofilm activity against Acinetobacter baumannii ATCC 19606 assessed as effect on biofilm 3D structures at half MIC concentration after 24 hrs by AO-staining based confocal microscopy. The format is functional, organism-based. The following applies: ATCC 19606 = CIP 70.34 = JCM 6841.
Data set [12] can be described thus: Hemolytic activity against human erythrocytes assessed as induction of hemolysis at 64 ug/ml after 30 mins. The format is cell-based, Erythrocyte. The conditions noted are these: read-out: Activity.
In data set [13] the test system is Escherichia coli. Put plainly: Antibiofilm activity against Escherichia coli MG1655 ATCC 47076 assessed as effect on biofilm 3D structures at half MIC concentration after 24 hrs by AO-staining based confocal microscopy. The data set is classed as functional, organism-based. The conditions noted are these: K-12 substr. MG1655 ATCC 47076.
The subject of data set [14] is Pseudomonas aeruginosa. Put plainly: Antibiofilm activity against Pseudomonas aeruginosa PAO1 ATCC 15692 at half MIC concentration after 24 hrs by crystal violet-based assay. The format is functional, organism-based.
Data set [15] relates to Acinetobacter baumannii. Put plainly: Disruption of inner membrane integrity in Acinetobacter baumannii ATCC 19606 co-expressing pMP2200::PrrnB plasmid assessed as induction of […] conversion at 256 ug/ml measured at 10 mins intervals for 1 hr. The data set is classed as functional, organism-based. The conditions noted are these: ATCC 19606 = CIP 70.34 = JCM 6841.
Data set [16] has as its system Escherichia coli. Put plainly: Disruption of Escherichia coli MG1655 ATCC 47076 outer membrane integrity assessed as induction of NPN uptake after 30 mins by NPN fluorescence-based assay. The format is functional, organism-based. The following applies: K-12 substr. MG1655 ATCC 47076.
Data set [17] relates to Pseudomonas aeruginosa. Put plainly: Disruption of Pseudomonas aeruginosa PAO1 ATCC 15692 outer membrane integrity assessed as induction of NPN uptake after 30 mins by NPN fluorescence-based assay. The format is functional, organism-based.
Data set [18] relates to Acinetobacter baumannii. Put plainly: Antibiofilm activity against Acinetobacter baumannii ATCC 19606 at half MIC concentration after 24 hrs by crystal violet-based assay. The format is functional, organism-based. The following applies: ATCC 19606 = CIP 70.34 = JCM 6841.
Data set [19] relates to Pseudomonas aeruginosa. As to the kind of experiment: Disruption of inner membrane integrity in Pseudomonas aeruginosa PAO1 ATCC 15692 co-expressing pMP2200::PrrnB plasmid assessed as induction of OPNG conversion at 256 ug/ml measured at 10 mins intervals for 1 hr. The data set is classed as functional, organism-based.

The MIC is the lowest concentration that inhibits growth of the organism.

Values after ≈ are worked out from the molar mass of the structure shown. Active and inactive are the calls of the source. No cut-off for these calls is given here.

For `CCNC(=N)NCCCCCCCCN(CCCCCCCCNC(=N)N)C(=O)N(CCCCCCCCNC(=N)N)CCCCCCCCNC(=N)NCC`, the MIC was 4 µg/mL (≈ 5.04 µM) with Klebsiella pneumoniae [1]; 1 µg/mL (≈ 1.26 µM) in the data set with Enterococcus faecalis; 2 µg/mL (≈ 2.52 µM) against Escherichia coli [2]; 16 µg/mL (≈ 20.2 µM) in [3]; 16 µg/mL (≈ 20.2 µM) against Pseudomonas aeruginosa [4]; 2 µg/mL (≈ 2.52 µM) in the data set with Klebsiella pneumoniae [5]. In addition, the MIC against Staphylococcus aureus was determined as 1 µg/mL (≈ 1.26 µM); in the data set on Bacillus spizizenii, 1 µg/mL (≈ 1.26 µM); against Burkholderia cepacia, 32 µg/mL (≈ 40.3 µM); in the data set with Enterobacter cloacae, 4 µg/mL (≈ 5.04 µM); in the data set on Acinetobacter baumannii [6] it was 16 µg/mL (≈ 20.2 µM); against Streptococcus pyogenes it was 0.5 µg/mL (≈ 0.63 µM).
On to `N=C(N)NCCCCCCCCN(CCCCCCCCNC(=N)NCc1ccccc1)C(=O)N(CCCCCCCCNC(=N)N)CCCCCCCCNC(=N)NCc1ccccc1`, for which the MIC in the data set with Klebsiella pneumoniae [1] was determined as 8 µg/mL (≈ 8.72 µM); with Enterococcus faecalis, 2 µg/mL (≈ 2.18 µM); against Escherichia coli [2] it was 4 µg/mL (≈ 4.36 µM); in data set [3], 8 µg/mL (≈ 8.72 µM); against Pseudomonas aeruginosa [4] it was 16 µg/mL (≈ 17.4 µM); in the data set on Klebsiella pneumoniae [5], 2 µg/mL (≈ 2.18 µM). Further, the MIC against Staphylococcus aureus amounted to 2 µg/mL (≈ 2.18 µM); against Bacillus spizizenii, 2 µg/mL (≈ 2.18 µM); in the data set on Burkholderia cepacia, 16 µg/mL (≈ 17.4 µM); against Enterobacter cloacae it was 4 µg/mL (≈ 4.36 µM); against Acinetobacter baumannii [6] it was 8 µg/mL (≈ 8.72 µM); against Streptococcus pyogenes it was 2 µg/mL (≈ 2.18 µM).
Take `N=C(N)NCCCCCCCCCCN(CCCCCCCCCCNC(=N)NCC1CC1)C(=O)N(CCCCCCCCCCNC(=N)N)CCCCCCCCCCNC(=N)NCC1CC1`: the MIC in the data set with Enterococcus faecalis is 4 µg/mL (≈ 4.18 µM); in the data set on Escherichia coli [2] it was 16 µg/mL (≈ 16.7 µM); with Pseudomonas aeruginosa [4], 64 µg/mL (≈ 66.8 µM); with Klebsiella pneumoniae [5], 8 µg/mL (≈ 8.35 µM); in the data set on Staphylococcus aureus it was 8 µg/mL (≈ 8.35 µM); in the data set on Bacillus spizizenii it was 2 µg/mL (≈ 2.09 µM). Further, the figures for the MIC in the data set with Acinetobacter baumannii [6] and in the data set on Streptococcus pyogenes were 64 µg/mL (≈ 66.8 µM) and 4 µg/mL (≈ 4.18 µM), respectively. The Activity entry with Acinetobacter baumannii [7], in the data set with Escherichia coli [16] and with Pseudomonas aeruginosa [17] was “Dose-dependent effect” throughout. Moreover, the outcome with Escherichia coli [8], in the data set on Escherichia coli [9], in the data set with Pseudomonas aeruginosa [10], in the data set on Acinetobacter baumannii [11], in the data set with Escherichia coli [13] and in the data set on Pseudomonas aeruginosa [14] was inactive. The outcome in the data set on Acinetobacter baumannii [15], in the data set with Acinetobacter baumannii [18] and in the data set on Pseudomonas aeruginosa [19] was inactive. In addition, the hemolysis at 0.5 h, 64 ug/ml in [12] fell in the range of 41 to 54%.
As to `N=C(N)NCCCCCCCCNCCCCCCCCNC(=N)NCC1CC1`, the MIC is greater than 64 µg/mL in the data set on Enterococcus faecalis; 64 µg/mL (≈ 156 µM) with Escherichia coli [2]; greater than 64 µg/mL against Pseudomonas aeruginosa [4]; greater than 64 µg/mL against Klebsiella pneumoniae [5]; greater than 64 µg/mL in the data set on Staphylococcus aureus; 64 µg/mL (≈ 156 µM) with Bacillus spizizenii. For the same compound, the MIC in the data set with Acinetobacter baumannii [6] and against Streptococcus pyogenes was greater than 64 µg/mL in each case. The Activity result in the data set on Acinetobacter baumannii [7], with Escherichia coli [16] and in the data set on Pseudomonas aeruginosa [17] was “Dose-dependent effect” in each case. Besides, the outcome with Escherichia coli [8], in the data set with Escherichia coli [9], in the data set with Pseudomonas aeruginosa [10], with Acinetobacter baumannii [11], in the data set on Escherichia coli [13] and in the data set with Pseudomonas aeruginosa [14] was inactive. Besides, the outcome with Acinetobacter baumannii [15], with Acinetobacter baumannii [18] and with Pseudomonas aeruginosa [19] was inactive. In addition, the hemolysis at 0.5 h, 64 ug/ml in [12] is 0 to 7%.
With `CCCCCCCCCCCCOS(=O)(=O)[O-].[Na+]`, the outcome with Escherichia coli [9], in the data set on Acinetobacter baumannii [15] and in the data set with Pseudomonas aeruginosa [19] was Active.
